# Literature values as cited in EP0882446A1, “Antimicrobial skin cleansing compositions” (GOJO INDUSTRIES,INC., priority 1997, dated 1998).
# Assays:
# [1] = system: wide spectrum of bacteria; conditions: against a wide spectrum of bacteria; reported
# [2] = at levels below about 3 percent by weight
structure (smiles),measurement,setting,value
"Cc1cc(O)cc(C)c1Cl [PCMX, 4-chloro-3,5-dimethyl phenol]",antimicrobial activity relative to phenol,[1],60 times
same,toxicity and irritation to human skin,[2],non-toxic and non-irritating
